In patent US10233189B2 (priority 2015, dated 2019):

Experiment: Evaluation of stability in hepatic microsome
Type: in vitro ADME
Settings: mouse hepatic microsome 0.25 mg/mL, 1 μM compound, 37° C., 30 minutes, NADPH-generating system

Cc1ccc(-c2nn(C(C)(C)C)c3ncnc(N)c23)cc1 [Compound 4 of Comparative Examples, 1-(tert-butyl)-3-(p-tolyl)pyrazolo[3,4-d]pyrimidin-4-amine]
percentage of the remaining tested compounds (remaining %): 0%
